# Reference: patent US10196364B2, “Pyrimidine carboxamides as sodium channel blockers” (Purdue Pharma L.P., priority 2013, dated 2019)
# pIC50: −log10 of the molar value.
# Target: human Nav1.7 (Homo sapiens, UniProt Q15858)
# Assay: FLIPR sodium dye assay (CoroNa Green AM Na+ dye, primary fluorescence assay) in recombinant Nav1.7/HEK293 cells
# Format: cell-based
# Details: not given
# Chain of human Nav1.7 (Q15858 1-1977 isoform Q15858-3): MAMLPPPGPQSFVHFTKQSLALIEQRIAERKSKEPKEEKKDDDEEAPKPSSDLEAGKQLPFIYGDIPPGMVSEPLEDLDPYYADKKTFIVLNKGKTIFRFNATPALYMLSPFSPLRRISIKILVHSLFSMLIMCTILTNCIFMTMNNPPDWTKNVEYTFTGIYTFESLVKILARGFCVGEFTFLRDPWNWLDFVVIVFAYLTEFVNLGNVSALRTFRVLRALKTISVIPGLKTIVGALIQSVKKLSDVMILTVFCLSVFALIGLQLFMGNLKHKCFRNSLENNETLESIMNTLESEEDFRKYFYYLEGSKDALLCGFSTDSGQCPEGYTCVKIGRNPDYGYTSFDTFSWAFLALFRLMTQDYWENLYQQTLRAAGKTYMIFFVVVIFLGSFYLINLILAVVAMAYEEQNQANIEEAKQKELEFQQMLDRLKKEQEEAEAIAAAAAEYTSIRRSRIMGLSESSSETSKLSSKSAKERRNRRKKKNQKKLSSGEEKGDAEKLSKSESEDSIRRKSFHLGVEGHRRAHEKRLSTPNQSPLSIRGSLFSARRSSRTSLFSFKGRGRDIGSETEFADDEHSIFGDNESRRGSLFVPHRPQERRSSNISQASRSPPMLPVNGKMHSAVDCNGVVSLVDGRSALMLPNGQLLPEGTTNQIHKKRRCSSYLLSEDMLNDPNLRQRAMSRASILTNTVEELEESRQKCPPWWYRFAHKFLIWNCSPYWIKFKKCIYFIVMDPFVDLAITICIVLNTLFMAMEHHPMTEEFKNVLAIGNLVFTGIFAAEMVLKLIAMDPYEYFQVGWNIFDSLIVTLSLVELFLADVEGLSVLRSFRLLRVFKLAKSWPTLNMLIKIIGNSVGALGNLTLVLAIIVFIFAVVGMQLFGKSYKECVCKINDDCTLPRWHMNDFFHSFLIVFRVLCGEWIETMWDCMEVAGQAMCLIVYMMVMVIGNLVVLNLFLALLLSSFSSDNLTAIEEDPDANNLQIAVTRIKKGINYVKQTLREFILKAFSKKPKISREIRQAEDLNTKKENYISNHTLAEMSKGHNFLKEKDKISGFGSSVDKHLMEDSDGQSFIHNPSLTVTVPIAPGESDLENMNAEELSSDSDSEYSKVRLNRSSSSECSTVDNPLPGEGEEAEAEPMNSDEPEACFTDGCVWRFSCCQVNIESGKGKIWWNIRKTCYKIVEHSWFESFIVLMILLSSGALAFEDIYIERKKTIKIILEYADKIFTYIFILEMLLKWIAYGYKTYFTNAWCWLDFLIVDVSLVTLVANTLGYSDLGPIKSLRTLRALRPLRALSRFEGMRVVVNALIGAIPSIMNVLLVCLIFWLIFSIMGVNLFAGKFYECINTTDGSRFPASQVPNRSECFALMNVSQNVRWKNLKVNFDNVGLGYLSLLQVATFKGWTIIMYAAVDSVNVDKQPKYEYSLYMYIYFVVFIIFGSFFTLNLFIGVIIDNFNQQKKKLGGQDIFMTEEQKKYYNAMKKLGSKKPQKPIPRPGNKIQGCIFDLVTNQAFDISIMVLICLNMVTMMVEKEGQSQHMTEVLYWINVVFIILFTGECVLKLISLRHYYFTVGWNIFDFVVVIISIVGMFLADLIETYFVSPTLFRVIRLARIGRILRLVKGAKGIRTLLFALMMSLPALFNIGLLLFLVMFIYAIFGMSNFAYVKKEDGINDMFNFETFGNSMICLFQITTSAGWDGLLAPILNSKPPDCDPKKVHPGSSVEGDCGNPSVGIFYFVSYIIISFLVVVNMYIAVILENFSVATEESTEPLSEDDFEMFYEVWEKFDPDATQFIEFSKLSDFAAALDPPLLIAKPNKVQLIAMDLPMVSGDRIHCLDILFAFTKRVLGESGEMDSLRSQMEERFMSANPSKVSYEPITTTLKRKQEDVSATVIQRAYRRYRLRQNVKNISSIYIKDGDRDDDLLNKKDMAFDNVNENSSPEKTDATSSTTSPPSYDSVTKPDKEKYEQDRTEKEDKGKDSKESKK
row,SMILES,pIC50
1,"NC(=O)c1cc(N[C@@H]2CCNC2=O)nc(-c2ccc(Oc3ccc(C(F)(F)F)cn3)cc2)n1 [compound 149, (R)-6-((2-oxopyrrolidin-3-yl)amino)-2-(4-((5-(trifluoromethyl)pyridin-2-yl)oxy)phenyl)pyrimidine-4-carboxamide]",6.49

# Same assay, conditions: Table 6; CoroNa Green AM Na+ dye primary fluorescence assay; read-out: Nav1.7 Activity (μM) FLIPR assay IC50
row,SMILES,IC50 [µM]
1,"NC(=O)c1cc(OCCN2CCNC2=O)nc(-c2ccc(Oc3ccc(C(F)(F)F)cc3)cc2)n1 [compound 127, 6-(2-(2-oxoimidazolidin-1-yl)ethoxy)-2-(4-(4-(trifluoromethyl)phenoxy)phenyl) pyrimnidine-4-carboxamide]",0.26
2,"C[C@H](Nc1cc(C(N)=O)nc(-c2ccc(Oc3ccc(C(F)(F)F)cc3CN3CCCC3)cc2)n1)C(N)=O [compound 170, (S)-6-((1-amino-1-oxopropan-2-yl)amino)-2-(4-(2-(pyrrolidin-1-ylmethyl)-4-(trifluoromethyl)phenoxy)phenyl) pyrimidine-4-carboxamide]",1.17
3,"C[C@H](Nc1cc(C(N)=O)nc(-c2ccc(Oc3ccc4c(c3)CCC4)cc2)n1)C(N)=O [compound 109, (S)-6-((1-amino-1-oxopropan-2-yl)amino)-2-(4-((2,3-dihydro-1H-inden-5-yl)oxy)phenyl)pyrimidine-4-carboxamide]",0.11
4,"CN1CCN(c2cc(Oc3ccc(-c4nc(N[C@H]5CCNC5=O)cc(C(N)=O)n4)cc3)ccc2C(F)(F)F)CC1 [Cpd No. 210, (S)-2-(4-(3-(4-methylpiperazin-1-yl)-4-(trifluoromethyl)phenoxy)phenyl)-6-((2-oxopyrrolidin-3-yl)amino)pyrimidine-4-carboxamide]",1.94
5,"NC(=O)c1cc(O[C@H]2CCN(C[C@H](O)CO)C2=O)nc(-c2ccc(Oc3ccc(F)cc3)cc2)n1 [compound 123, 6-(((S)-1-((S)-2,3-dihydroxypropyl)-2-oxopyrrolidin-3-yl)oxy)-2-(4-(4-fluorophenoxy)phenyl)pyrimidine-4-carboxamide]",0.67
6,"C[C@H](Nc1cc(C(N)=O)nc(Oc2ccc(F)cc2)n1)C(N)=O [compound 104, (S)-6-((1-amino-1-oxopropan-2-yl)amino)-2-(4-fluorophenoxy)pyrimidine-4-carboxamide]",> 20
7,"CN1CC=C(c2cc(C(F)(F)F)ccc2Oc2ccc(-c3nc(N[C@H]4CCNC4=O)cc(C(N)=O)n3)cc2)CC1 [Cpd No. 207, (S)-2-(4-(2-(1-methyl-1,2,3,6-tetrahydropyridin-4-yl)-4-(trifluoromethyl)phenoxy)phenyl)-6-((2-oxopyrrolidin-3-yl)amino)pyrimidine-4-carboxamide]",4.7
8,"NC(=O)c1cc(N2CCC[C@H]2C(N)=O)nc(-c2ccc(Oc3ccc(OC(F)(F)F)cc3)cc2)n1 [compound 125, (S)-6-(2-carbamoylpyrrolidin-1-yl)-2-(4-(4-(trifluoromethoxy)phenoxy)phenyl)pyrimnidine-4-carboxamide]",0.28
9,"NC(=O)c1cc(O[C@H](C(N)=O)C(O)CO)nc(-c2ccc(Oc3ccc(C(F)(F)F)cc3)cc2)n1 (stereo partly drawn) [compound 124, 6-(((2S)-1-amino-3,4-dihydroxy-1-oxobutan-2-yl)oxy)-2-(4-(4-(trifluoromethyl)phenoxy)phenyl)pyrimidine-4-carboxamide]",0.7
10,"NC(=O)c1cc(N[C@H]2CCNC2=O)nc(-c2ccc(Oc3ccc(F)cc3)cc2CN2CCCCC2)n1 [compound 158, (S)-2-(4-(4-fluorophenoxy)-2-(piperidin-1-ylmethyl)phenyl)-6-((2-oxopyrrolidin-3-yl)amino)pyrimidine-4-carboxamide]",0.89
11,"NC(=O)c1cc(N[C@H]2CCNC2=O)nc(-c2ccc(Oc3ccc(C(F)(F)F)c(C4=CCNCC4)c3)cc2)n1 [Cpd No. 205, (S)-6-((2-oxopyrrolidin-3-yl)amino)-2-(4-(3-(1,2,3,6-tetrahydropyridin-4-yl)-4-(trifluoromethyl)phenoxy)phenyl)pyrimidine-4-carboxamide]",> 20
12,"NC(=O)c1cc(N[C@H]2CCNC2=O)nc(-c2ccc(Oc3ccc(OC(F)(F)F)cc3)cc2)n1 [compound 116, (S)-6-((2-oxopyrrolidin-3-yl)amino)-2-(4-(4-(trifluoromethoxy)phenoxy)phenyl)pyrimidine-4-carboxamide]",0.18
13,"Cc1cnc(Oc2ccc(-c3nc(N[C@H]4CCNC4=O)cc(C(N)=O)n3)cc2)cn1 [Cpd No. 199, (S)-2-(4-((5-methylpyrazin-2-yl)oxy)phenyl)-6-((2-oxopyrrolidin-3-yl)amino)pyrimidine-4-carboxamide]",4.67
14,"C[C@H](Nc1cc(C(N)=O)nc(N2CCC(Cc3ccccc3)CC2)n1)C(N)=O [compound 107, (S)-6-((1-amino-1-oxopropan-2-yl)amino)-2-(4-benzylpiperidin-1-yl)pyrimidine-4-carboxamide]",1.95
15,"NC(=O)c1cc(N[C@H]2CCNC2=O)nc(N2C3CCC2CC(Oc2ccc(F)cc2)C3)n1 (stereo partly drawn) [compound 159, 2-(3-(4-fluorophenoxy)-8-azabicyclo[3.2.1]octan-8-yl)-6-(((S)-2-oxopyrrolidin-3-yl)amino)pyrimidine-4-carboxamide]",1.29
16,"N#Cc1ccc(Oc2ccc(-c3nc(N[C@H]4CCNC4=O)cc(C(N)=O)n3)cc2)cc1 [compound 113, (S)-2-(4-(4-cyanophenoxy)phenyl)-6-((2-oxopyrrolidin-3-yl)amino)pyrimidine-4-carboxamide]",0.29

row,SMILES,IC50 [µM]
1,"NC(=O)c1cc(N[C@H]2CCNC2=O)nc(N2CC3CC2CN3Cc2ccc(F)cc2)n1 (stereo partly drawn) [compound 139, 2-(5-(4-fluorobenzyl)-2,5-diazabicyclo[2.2.1]heptan-2-yl)-6-(((S)-2-oxopyrrolidin-3-yl)amino)pyrimidine-4-carboxamide]",> 20
2,"C[C@H](Oc1cc(C(N)=O)nc(-c2ccc(Oc3ccc4c(c3)CCC4)cc2)n1)C(N)=O [compound 129, (S)-6-((1-amino-1-oxopropan-2-yl)oxy)-2-(4-((2,3-dihydro-1H-inden-5-yl)oxy)phenyl)pyrimidine-4-carboxamide]",0.26
3,CN1CCN(Cc2cc(C(F)(F)F)ccc2Oc2ccc(-c3nc(N[C@H]4CCNC4=O)cc(C(N)=O)n3)cc2)CC1 [Cpd No. 193],> 20
4,"NC(=O)c1cc(N[C@H]2CCNC2=O)nc(-c2ccc(Oc3cnc(C4CC4)cn3)cc2)n1 [compound 165, (S)-2-(4-((5-cyclopropylpyrazin-2-yl)oxy)phenyl)-6-((2-oxopyrrolidin-3-yl)amino)pyrimidine-4-carboxamide]",1.19
5,"COc1cnc(Oc2ccc(-c3nc(N[C@H]4CCNC4=O)cc(C(N)=O)n3)cc2)cn1 [Cpd No. 197, (S)-2-(4-((5-methoxypyrazin-2-yl)oxy)phenyl)-6-((2-oxopyrrolidin-3-yl)amino)-pyrimidine-4-carboxamide]",5.07
6,"NC(=O)c1cc(O[C@@H](CO)C(N)=O)nc(-c2ccc(Oc3ccc(C(F)(F)F)cc3)cc2)n1 [compound 121, (S)-6-((1-amino-3-hydroxy-1-oxopropan-2-yl)oxy)-2-(4-(4-(trifluoromethyl)phenoxy)phenyl)pyrimidine-4-carboxamide]",1.01
7,"NC(=O)c1cc(N[C@H]2CCNC2=O)nc(-c2ccc(Oc3ncc(OCC(F)(F)F)cn3)cc2)n1 [compound 148, (S)-6-((2-oxopyrrolidin-3-yl)amino)-2-(4-((5-(2,2,2-trifluoroethoxy)pyrimidin-2-yl)oxy)phenyl)pyrimidine-4-carboxamide]",> 20
8,"COCc1cc(Oc2ccc(F)cc2)ccc1-c1nc(N[C@@H](C)C(N)=O)cc(C(N)=O)n1 [compound 130, (S)-6-((1-amino-1-oxopropan-2-yl)amino)-2-(4-(4-fluorophenoxy)-2-(methoxymethyl)phenyl)pyrimidine-4-carboxamide]",1.77
9,"Cn1ccnc1CNc1cc(C(N)=O)nc(-c2ccc(Oc3ccc(F)cc3)cc2)n1 [Cpd No. 180, 2-(4-(4-fluorophenoxy)phenyl)-6-(((1-methyl-1H-imidazol-2-yl)methyl)-amino)pyrimidine-4-carboxamide]",0.14
10,"CN1CCC(Nc2cc(C(N)=O)nc(-c3ccc(Oc4ccc(F)cc4)cc3)n2)C1=O (stereo not drawn) [compound 131, 2-(4-(4-fluorophenoxy)phenyl)-6-((1-methyl-2-oxopyrrolidin-3-yl)amino)pyrimnidine-4-carboxamide]",0.22
11,"NC(=O)c1cc(N[C@H]2CCNC2=O)nc(-c2ccc(Oc3ccc(C(F)(F)F)nn3)cc2)n1 [compound 152, (S)-6-((2-oxopyrrolidin-3-yl)amino)-2-(4-((6-(trifluoromethyl)pyridazin-3-yl)oxy)phenyl)pyrimidine-4-carboxamide]",> 20
12,"NC(=O)c1cc(N[C@H]2CCNC2=O)nc(-c2ccc(Oc3ccc(C(F)(F)F)cc3CN3CCCCC3)cc2)n1 [Cpd No. 194, (S)-6-((2-oxopyrrolidin-3-yl)amino)-2-(4-(2-(piperidin-1-ylmethyl)-4-(trifluoromethyl)-phenoxy)phenyl)pyrimidine-4-carboxamide]",2.18
13,"CC(C)N1CCN(c2cc(C(N)=O)nc(-c3ccc(Oc4ccc(F)cc4)cc3)n2)C(C(N)=O)C1 (stereo not drawn) [compound 112, 6-(2-carbamoyl-4-isopropylpiperazin-1-yl)-2-(4-(4-fluorophenoxy)phenyl)pyrimidine-4-carboxamide]",0.38
14,"C[C@H](Nc1cc(C(N)=O)nc(N2C3CCC2CC(Oc2ccc(F)cc2)C3)n1)C(N)=O (stereo partly drawn) [compound 161, 6-(((S)-1-amino-1-oxopropan-2-yl)amino)-2-(3-(4-fluorophenoxy)-8-azabicyclo[3.2.1]octan-8-yl)pyrimidine-4-carboxamide]",3.24
15,"NC(=O)c1cc(N[C@H]2CCNC2=O)nc(-c2ccc(CC3CCC(C(F)(F)F)CN3)cc2)n1 (stereo partly drawn) [Cpd No. 185, 6-(((S)-2-oxopyrrolidin-3-yl)amino)-2-(4-((5-(trifluoromethyl)piperidin-2-yl)methyl)phenyl)pyrimidine-4-carboxamide]",8.69
16,"COc1ccc(CNc2cc(C(N)=O)nc(-c3ccc(Oc4ccc(F)cc4)cc3)n2)c(OC)c1 [Cpd No. 178, 6-((2,4-dimethoxybenzyl)amino)-2-(4-(4-fluorophenoxy)phenyl)-pyrimidine-4-carboxamide]",1.74
